Source: the supplement of paper PMC12137928
Where a name gives a salt, the structure may show the parent alone.

System: HCT116
Conditions: 72 h
How it was run: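 IC50 and maximal efficacy were derived from four-parameter Hill curve fits. The underlying CellTiter-Glo luminescence was scaled so that vehicle equals 0% and positive control equals -100%, and was then pattern-corrected. HCT116 cells had been seeded in 1536-well plates at 250 per well.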

Compound | IC50 cell viability (ICRF193 0 nM) | IC50 cell viability (ICRF193 200 nM)
Cc1cccc(Cc2c[nH]cn2)c1C [Detomidine hydrochloride] | > 45.8 µM | > 45.8 µM
CN(C)CC[C@@H](c1ccc(Cl)cc1)c1ccccn1 [Dexchlorpheniramine hydrochloride] | > 45.8 µM | > 45.8 µM
Cc1cccc([C@H](C)c2c[nH]cn2)c1C [Dexmedetomidine] | > 45.8 µM | > 45.8 µM
CC(C)(CO)[C@@H](O)C(=O)NCCCO [Dexpanthenol] | > 45.8 µM | > 45.8 µM
CC(C)NC[C@@H](O)COc1cccc2ccccc12 [Dexpropranolol] | > 45.8 µM | > 45.8 µM
OC[C@H]1OC(O)[C@H](O)[C@@H](O)[C@@H]1O (stereo partly specified) [Dextrose] | > 45.8 µM | > 45.8 µM
CC1=Nc2ccc(Cl)cc2S(=O)(=O)N1 [Diazoxide] | > 45.8 µM | > 45.8 µM
CN(C)CCN1C(=O)c2ccccc2N(C)c2ccccc21 [Dibenzepin hydrochloride] | > 45.8 µM | > 45.8 µM
c1ccc2c(c1)sc1ccccc12 [Dibenzothiophene] | > 45.8 µM | > 45.8 µM
O[C@@H]([C@H](O)[C@H](O)CBr)[C@H](O)CBr [Dibromomannitol] | > 45.8 µM | > 45.8 µM
CCCCCCCCCCCC(=O)[O][Sn]([CH2]CCC)([CH2]CCC)[O]C(=O)CCCCCCCCCCC [Dibutyltin dilaurate] | > 45.8 µM | > 45.8 µM
NCCN.[Cl][Pt][Cl] [Dichloro(ethylenediamine)platinum(II)] | > 45.8 µM | > 45.8 µM
COP(=O)(OC)OC=C(Cl)Cl [Dichlorvos] | > 45.8 µM | > 45.8 µM
O=C(O)Cc1ccccc1Nc1c(Cl)cccc1Cl [Diclofenac sodium] | > 45.8 µM | > 45.8 µM
NS(=O)(=O)c1cc(Cl)c(Cl)c(S(N)(=O)=O)c1 [Diclofenamide] | > 45.8 µM | > 45.8 µM
O=c1oc2ccccc2c(O)c1Cc1c(O)c2ccccc2oc1=O [Dicumarol] | > 45.8 µM | > 45.8 µM
C1CCC(NC2CCCCC2)CC1 [Dicyclohexylamine] | > 45.8 µM | > 45.8 µM
S=C(SSC(=S)N1CCCCC1)N1CCCCC1 [Dicyclopentamethylenethiuram disulfide] | > 45.8 µM | > 45.8 µM
CCOC(=O)c1ccccc1C(=O)OCC [Diethyl phthalate] | > 45.8 µM | > 45.8 µM
CC(C)C[C@H]1C(=O)N2CCC[C@H]2[C@]2(O)O[C@](NC(=O)[C@@H]3C[C@@H]4c5cccc6[nH]cc(c56)C[C@H]4N(C)C3)(C(C)C)C(=O)N12 [Dihydroergocriptine] | > 45.8 µM | > 45.8 µM
CN1C[C@H](C(=O)N[C@]2(C)O[C@@]3(O)[C@@H]4CCCN4C(=O)[C@H](Cc4ccccc4)N3C2=O)C[C@@H]2c3cccc4[nH]cc(c34)C[C@H]21 [Dihydroergotamine] | > 45.8 µM | > 45.8 µM
CC(C)NC(C)C [Diisopropylamine] | > 45.8 µM | > 45.8 µM
Cc1ccc2c(c1)[C@]13CCCC[C@@H]1[C@H](C2)N(C)CC3 [Dimemorfan phosphate] | > 45.8 µM | > 45.8 µM
CCCCc1cc2ccccc2c(OCCN(C)C)n1 [Dimethisoquin hydrochloride] | > 45.8 µM | > 45.8 µM
CC#C[C@]1(O)CC[C@H]2[C@@H]3C[C@H](C)C4=CC(=O)CC[C@]4(C)[C@H]3CC[C@@]21C [Dimethisteron] | > 45.8 µM | > 45.8 µM
COC(=O)/C=C\C(=O)OC [Dimethyl maleate] | > 45.8 µM | > 45.8 µM
C[N+](C)(CCOc1ccccc1)Cc1cccs1 [Dimethyl(2-phenoxyethyl)-2-thenylammonium iodide] | > 45.8 µM | > 45.8 µM
OC(CCCN1CCCCC1)(c1ccccc1)c1ccccc1 [Diphenidol] | > 45.8 µM | > 45.8 µM

Second part, the molecule after the results:

IC50 cell viability (ICRF193 0 nM) | IC50 cell viability (ICRF193 200 nM) | Compound
> 45.8 µM | > 45.8 µM | N=C(N)NCCC[C@@H](NC(=O)[C@@H]1CCCN1C(=O)[C@@H]1CSSCCC(=O)N[C@@H](Cc2ccc(O)cc2)C(=O)N[C@@H](Cc2ccccc2)C(=O)N[C@@H](CCC(N)=O)C(=O)N[C@@H](CC(N)=O)C(=O)N1)C(=O)NCC(N)=O [Desmopressin (Acetate)]
> 45.8 µM | > 45.8 µM | C#C[C@]1(O)CC[C@H]2[C@@H]3CCC4=CCCC[C@@H]4[C@H]3C(=C)C[C@@]21CC [Desogestrel]
> 45.8 µM | > 45.8 µM | CC1(C)O[C@@H]2C[C@H]3[C@@H]4CCC5=CC(=O)C=C[C@]5(C)[C@H]4[C@@H](O)C[C@]3(C)[C@]2(C(=O)CO)O1 [Desonide]
> 45.8 µM | > 45.8 µM | C[C@@H]1C[C@H]2[C@@H]3CCC4=CC(=O)C=C[C@]4(C)[C@@]3(F)[C@@H](O)C[C@]2(C)[C@H]1C(=O)CO [Desoximetasone]
> 45.8 µM | > 45.8 µM | CC(C)(C)C(=O)OCC(=O)[C@H]1CC[C@H]2[C@@H]3CCC4=CC(=O)CC[C@]4(C)[C@H]3CC[C@]12C [Desoxycorticosterone Pivalate]
> 45.8 µM | > 45.8 µM | CCCCCCCCCCCCCCCC(=O)OCC(=O)[C@@]1(O)[C@H](C)C[C@H]2[C@@H]3CCC4=CC(=O)C=C[C@]4(C)[C@@]3(F)[C@@H](O)C[C@@]21C [Dexamethasone 21-Palmitate]
> 45.8 µM | > 45.8 µM | C[C@@H]1C[C@H]2[C@@H]3CCC4=CC(=O)C=C[C@]4(C)[C@@]3(F)[C@@H](O)C[C@]2(C)[C@@]1(O)C(=O)COP(=O)(O)O [Dexamethasone 21-phosphate disodium salt]
> 45.8 µM | > 45.8 µM | CC(=O)OCC(=O)[C@@]1(O)[C@H](C)C[C@H]2[C@@H]3CCC4=CC(=O)C=C[C@]4(C)[C@@]3(F)[C@@H](O)C[C@@]21C [Dexamethasone acetate]
> 45.8 µM | > 45.8 µM | C[C@@H]1C[C@H]2[C@@H]3CCC4=CC(=O)C=C[C@]4(C)[C@@]3(F)[C@@H](O)C[C@]2(C)[C@@]1(O)C(=O)COC(=O)c1ccncc1 [Dexamethasone isonicotinate]
> 45.8 µM | > 45.8 µM | C[C@@H]1C[C@H]2[C@@H]3CCC4=CC(=O)C=C[C@]4(C)[C@@]3(F)[C@@H](O)C[C@]2(C)[C@@]1(O)C(=O)CO [Dexamethasone]
> 45.8 µM | > 45.8 µM | C[C@@H](CN1CC(=O)NC(=O)C1)N1CC(=O)NC(=O)C1 [Dexrazoxane hydrochloride]
> 45.8 µM | > 45.8 µM | CCN(CC)CCOc1ccc2nc(N(C)C)sc2c1 [Diamthazole]
> 45.8 µM | > 45.8 µM | CC(=O)Nc1c(I)c(NC(C)=O)c(I)c(C(=O)O)c1I [Diatrizoic acid dihydrate]
> 45.8 µM | > 45.8 µM | CCCCOc1cc(C(=O)NCCN(CC)CC)c2ccccc2n1 [Dibucaine]
> 45.8 µM | > 45.8 µM | CCOC(=O)OCC/C(SC(=O)OCC)=C(\C)N(C=O)Cc1cnc(C)nc1N [Dicethiamine hydrochloride]
> 45.8 µM | > 45.8 µM | Cc1onc(-c2c(Cl)cccc2Cl)c1C(=O)N[C@@H]1C(=O)N2[C@@H]1SC(C)(C)[C@@H]2C(=O)O [Dicloxacillin sodium salt monohydrate]
> 45.8 µM | > 45.8 µM | CCN(CC)CCOC(=O)C1(C2CCCCC2)CCCCC1 [Dicyclomine]
> 45.8 µM | > 45.8 µM | C[C@]12CCC3=C4CCC(=O)C=C4CC[C@H]3[C@@H]1CC[C@@]2(O)CC#N [Dienogest]
> 45.8 µM | > 45.8 µM | CC(=O)OCC(=O)[C@@]1(OC(C)=O)[C@@H](C)C[C@H]2[C@@H]3C[C@H](F)C4=CC(=O)C=C[C@]4(C)[C@@]3(F)[C@@H](O)C[C@@]21C [Diflorasone diacetate]
> 45.8 µM | > 45.8 µM | CN1CCN(c2cc3c(cc2F)c(=O)c(C(=O)O)cn3-c2ccc(F)cc2)CC1 [Difloxacin hydrochloride]
> 45.8 µM | > 45.8 µM | O=C(O)c1cc(-c2ccc(F)cc2F)ccc1O [Diflunisal]
> 45.8 µM | > 45.8 µM | CCCC(=O)O[C@]1(C(=O)COC(C)=O)CC[C@H]2[C@@H]3C[C@H](F)C4=CC(=O)C=C[C@]4(C)[C@@]3(F)[C@@H](O)C[C@@]21C [Difluprednate]
> 45.8 µM | > 45.8 µM | CC(C)[C@@H](C)/C=C/[C@@H](C)[C@H]1CC[C@H]2/C(=C/C=C3\C[C@@H](O)CC[C@@H]3C)CCC[C@]12C [Dihydrotachysterol]
> 45.8 µM | > 45.8 µM | CN(C(=O)C(Cl)Cl)c1ccc(OC(=O)c2ccco2)cc1 [Diloxanide furoate]
> 45.8 µM | > 45.8 µM | COc1ccc([C@@H]2Sc3ccccc3N(CCN(C)C)C(=O)[C@@H]2OC(C)=O)cc1 [Diltiazem]
> 45.8 µM | > 45.8 µM | COc1ccc2c(=O)c(C)c(-c3ccccc3)oc2c1CN(C)C [Dimefline hydrochloride]
> 45.8 µM | > 45.8 µM | CCCCN(CCN(CCCC)C(=O)N1CCOCC1)C(=O)N1CCOCC1 [Dimorpholamine]
> 45.8 µM | > 45.8 µM | O=C(Nc1ccccc1)OCC(CN1CCCCC1)OC(=O)Nc1ccccc1 (stereo unspecified) [Diperodon hydrochloride]
> 45.8 µM | > 45.8 µM | C[N+]1(C)CCC(=C(c2ccccc2)c2ccccc2)CC1 [Diphemanil methylsulfate]
> 45.8 µM | > 45.8 µM | CN1CCC(OC(c2ccccc2)c2ccccc2)CC1 [Diphenylpyraline hydrochloride]
